From PubChem BioAssay (NCI)
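96-well plates; 48 h exposure; 5 concentrations. Endpoints by linear interpolation between flanking doses. Not reached: highest tested concentration assigned. At the GI50, growth is halved. TGI: total growth inhibition.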

Columns and labels:
Assay in all cases: NCI-60 cell line screen, 48 h
[1] = tested on: HCC-2998 colon
[2] = tested on: HCT-15 colon
[3] = tested on: HOP-62 NSCLC
[4] = tested on: IGROV1 ovarian
[5] = tested on: K-562 leukemia
[6] = tested on: KM12 colon
[7] = tested on: NCI/ADR-RES ovarian
[8] = tested on: SN12C renal
[9] = tested on: DU-145 prostate
[10] = tested on: HS 578T breast

Structure (SMILES) | TGI [1] | TGI [2] | TGI [3] | TGI [4] | TGI [5] | TGI [6] | TGI [7] | TGI [8] | TGI [9] | TGI [10] | GI50 [9] | GI50 [1] | GI50 [5] | GI50 [6] | GI50 [8]
CC(=O)O[C@@H]1O[Si](C(C)(C)C)(C(C)(C)C)[C@H](C)[C@H]1C | > 100 µM | > 100 µM | > 100 µM | > 100 µM | > 100 µM | > 100 µM | > 100 µM | > 100 µM | – | – | – | – | – | – | –
CN1C(=O)C23CCCCC2CC1(c1ccccc1)S3 (configuration not stated) | – | > 100 µM | > 100 µM | > 100 µM | > 100 µM | > 100 µM | > 100 µM | > 100 µM | > 100 µM | > 100 µM | – | – | – | – | –
CCN(CC)CCNc1ccc2nnn3c4ccccc4c(=O)c1c23 | 20.9 µM | 26.2 µM | 15.8 µM | 58.8 µM | 14.8 µM | 17.3 µM | – | 33.4 µM | – | – | – | – | – | – | –
N#Cc1c(N)c(C#N)c2c(c1-c1ccc(Cl)cc1)COc1ccccc1-2 | 54.9 µM | > 100 µM | 33.5 µM | 66.5 µM | 35.3 µM | > 100 µM | 68.5 µM | 31 µM | 68.6 µM | – | – | – | – | – | –
O=C1CN(c2ccc(Cl)cc2)C(=O)CN1NCNN1CC(=O)N(c2ccc(Cl)cc2)CC1=O | > 100 µM | > 100 µM | > 100 µM | > 100 µM | – | > 100 µM | – | > 100 µM | > 100 µM | > 100 µM | – | – | – | – | –
O=C(Nn1cnn2c(=O)c3ccccc3nc2c1=O)c1ccccc1 | > 100 µM | > 100 µM | > 100 µM | > 100 µM | > 100 µM | > 100 µM | – | > 100 µM | > 100 µM | > 100 µM | – | – | – | – | –
Cc1ccc(C2CC(c3cccc(Nc4ccncc4)c3)=NN2c2ccccc2)cc1 (configuration not stated) | 2.96 µM | – | – | – | 6.62 µM | 3.25 µM | – | 3.19 µM | 3.6 µM | – | 1.89 µM | 1.6 µM | 2.11 µM | 1.75 µM | 1.69 µM
Cn1c(-c2ccc(N=NNc3ccc(-c4n[nH]c(=S)n4C)cc3)cc2)n[nH]c1=S | – | > 100 µM | 69.4 µM | 46.4 µM | > 100 µM | – | > 100 µM | > 100 µM | 30.6 µM | > 100 µM | – | – | – | – | –
[O-][n+]1c(-c2ccccc2)c2nc3ccccc3nc2c2ccccc21 | > 100 µM | > 100 µM | > 100 µM | > 100 µM | > 100 µM | > 100 µM | – | > 100 µM | – | – | – | – | – | – | –
CN(C)CCCNC(=O)c1cc(NC(=O)c2cc(NC(=O)[C@@H]3C[C@H]3C(=O)Nc3cc(C(=O)Nc4cc(C(=O)NCCCN(C)C)n(C)c4)n(C)c3)cn2C)cn1C | > 100 µM | – | > 100 µM | > 100 µM | > 100 µM | > 100 µM | > 100 µM | > 100 µM | > 100 µM | – | – | – | – | – | –
O=C(O)c1nccnc1C(=O)O | > 100 µM | > 100 µM | – | > 100 µM | > 100 µM | > 100 µM | – | > 100 µM | – | – | – | – | – | – | –
COc1cc2c(c(OC(C)=O)c1OC(C)=O)-c1ccc(SC)c(=O)cc1C(NC(C)=O)CC2 (configuration not stated) | > 100 µM | > 100 µM | > 75.5 µM | > 100 µM | 36.3 µM | 12 µM | – | > 100 µM | – | – | – | – | – | – | –
CCC(=O)NCCc1c2c3c(ccnc3c3ncsc13)-c1ccccc1N2 | – | > 100 µM | > 100 µM | > 100 µM | > 100 µM | > 100 µM | > 100 µM | > 100 µM | > 100 µM | 18.7 µM | – | – | – | – | –
Oc1cc(CN2COc3ccccc32)c(O)cc1CNC1CCCCC1 | – | 47.6 µM | > 100 µM | > 100 µM | 52.9 µM | > 100 µM | > 100 µM | > 100 µM | > 100 µM | > 100 µM | – | – | – | – | –
CC(=O)Oc1c2oc3cc(O)c(O)cc3c2c(OC(C)=O)c2oc3cc(O)c(O)cc3c12 | 40.7 µM | 72.3 µM | 35.9 µM | 91.1 µM | > 100 µM | 44.4 µM | 86.7 µM | 58.6 µM | – | 36.4 µM | – | – | – | – | –
C=CCc1cccc(/C=N\N=C(/N)NO)c1O | 33.1 µM | > 100 µM | 7.08 µM | > 74.9 µM | > 47.9 µM | > 80.9 µM | > 29.3 µM | 33.5 µM | – | – | – | – | – | – | –
CN(C)C(=O)C1CCN(Cc2c[nH]c3ccccc23)CC1 | – | > 100 µM | > 100 µM | > 100 µM | > 100 µM | > 100 µM | > 100 µM | > 100 µM | > 100 µM | > 100 µM | – | – | – | – | –
COc1ccc(-c2nc(-c3cnccn3)n(COCCO)n2)cc1 | > 100 µM | > 100 µM | > 100 µM | > 100 µM | > 100 µM | > 100 µM | > 100 µM | > 100 µM | > 100 µM | – | – | – | – | – | –
CC(O[Si](c1ccccc1)(c1ccccc1)C(C)(C)C)[C@H](NC(=O)OC(C)(C)C)C(=O)O (some centres not stated) | > 100 µM | 79.7 µM | > 100 µM | 50.2 µM | > 100 µM | > 100 µM | > 100 µM | – | – | > 100 µM | – | – | – | – | –
CC(=O)N/C(=C\c1ccc(/C=C(\NC(C)=O)C2=NC3C(=O)c4ccccc4C(=O)C3N2)cc1)C1=NC2C(=O)c3ccccc3C(=O)C2N1 (configuration not stated) | – | > 100 µM | – | > 100 µM | > 100 µM | > 100 µM | – | > 100 µM | – | – | – | – | – | – | –
